The assay deals with T1, human FXR (NR1H4) (Homo sapiens, UniProt Q96RI1).
T1 construct: host or cells: CHO (Chinese hamster ovary) reporter cells
T1 sequence (Q96RI1 1-486): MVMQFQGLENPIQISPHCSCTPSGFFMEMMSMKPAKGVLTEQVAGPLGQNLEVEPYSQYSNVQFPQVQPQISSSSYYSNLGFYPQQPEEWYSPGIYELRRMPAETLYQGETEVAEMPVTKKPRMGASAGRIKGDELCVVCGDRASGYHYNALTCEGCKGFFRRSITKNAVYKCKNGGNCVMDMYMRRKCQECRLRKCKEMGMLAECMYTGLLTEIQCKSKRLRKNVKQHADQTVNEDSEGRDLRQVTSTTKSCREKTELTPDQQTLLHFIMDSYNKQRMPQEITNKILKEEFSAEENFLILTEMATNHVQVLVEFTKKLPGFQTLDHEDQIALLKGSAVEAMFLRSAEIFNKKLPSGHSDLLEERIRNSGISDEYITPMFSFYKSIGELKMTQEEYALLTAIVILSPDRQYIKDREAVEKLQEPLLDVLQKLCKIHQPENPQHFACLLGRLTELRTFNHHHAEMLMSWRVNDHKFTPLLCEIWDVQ
In words: Human FXR (NR1H4) Assay (luciferase reporter, Indigo Bioscience kit). In kind it is cell-based. The conditions noted are these: for Efficacy (%): efficacy normalized to CDCA set as 100%, CHO reporter cells expressing human NR1H4. An excerpt:
Human FXR (NR1H4) Assay Determination of a ligand mediated Gal4 promoter driven transactivation to quantify ligand binding mediated activation of FXR. FXR Reporter Assay kit purchased from Indigo Bioscience (Catalogue number: IB00601) to determine the potency and efficacy of compound developed by Enanta that can induce FXR activation. The principle application of this reporter assay system is to quantify functional activity of human FXR. The assay utilizes non-human mammalian cells, CHO (Chinese hamster ovary) cells engineered to express human NR1H4 protein (referred to as FXR). Reporter cells also incorporate the cDNA encoding beetle luciferase which catalyzes the substrates and yields photon emission. Luminescence intensity of the reaction is quantified using a plate-reading luminometer, Envision. Reporter Cells include the luciferase reporter gene functionally linked to an FXR responsive promoter. Thus, quantifying changes in luciferase expression in the treated reporter cells provides a sensitive surrogate measure of the changes in FXR activity. […] The assay is according to the manufacturer's instructions. In brief, the assay was performed in white, 96 well plates using final volume of 100 ul containing cells with different doses of compounds. Retrieve Reporter Cells from −80° C. storage. Perform a rapid thaw of the frozen cells by transferring a 10 ml volume of 37° C. cell recovery medium into the tube of frozen cells. Recap the tube of Reporter Cells and immediately place it in a 37° C. water bath for 5-10 minutes. Retrieve the tube of Reporter Cell Suspension from the water bath. Sanitize the outside surface of the tube with a 70% alcohol swab, and then transfer it into the cell culture hood. Dispense 90 μl of cell suspension into each well of the 96-well Assay Plate. Transfer the plate into 37° C. incubator, allowing the cells adherent to the bottom of the well. Dilute compounds in Dilution Plate (DP), and administrate to cells at Assay Plate (AP). DMSO content of the samples was kept at 0.2%. Cells were incubated for additional 22 hours before luciferase activities were measured. Thirty minutes before intending to quantify FXR activity, remove Detection Substrate and Detection Buffer from the refrigerator and place them in a low-light area so that they may equilibrate to room temperature. Remove the plate's lid and discard all media contents by ejecting it into an appropriate waste container. Gently tap the inverted plate onto a clean absorbent paper towel to remove residual droplets. Cells will remain tightly adhered to well bottoms. Add 100 μl of luciferase detection reagent to each well of the assay plate. […] Set the instrument (Envision) to perform a single 5 second “plate shake” prior to reading the first assay well. Read time may be 0.5 second (500 mSec) per well.
In general terms: Reporter assays use an easily measured gene product as a stand-in for the process of interest.

Bounds are passed on as bounds.

On to `[2H]C([C@@H]1[C@@H]2C[C@H](O)CC[C@]2(C)C2CC[C@@]3(C)C(CC[C@@H]3[C@H](C)CCNC(=O)NS(=O)(=O)c3ccc(C(C)(C)C)cc3)C2[C@]1([2H])O)C([2H])([2H])[2H]` (stereo partly shown) [Example 4], for which the EC50 (usually the concentration needed to bring the measured effect to its halfway point) is less than 100 nM and the “Efficacy (%)” value was found to be 197%.
`[2H]C([C@@H]1[C@@H]2C[C@H](O)CC[C@]2(C)C2CC[C@@]3(C)C(CC[C@@H]3[C@H](C)CCNC(=O)NS(=O)(=O)N(C)C)C2[C@]1([2H])O)C([2H])([2H])[2H]` (stereo partly shown) [Example 5]: the EC50 fell in the range of 100 to 1000 nM and the “Efficacy (%)” value came out at 352. %.

Values taken from US10364267B2, “Deuterated bile acid derivatives as FXR/TGR5 agonists and methods of use thereof” (ENANTA PHARMACEUTICALS, INC., priority 2016, dated 2019).
